US6475991B2, “Use of α-alkylglucosides and α-alkylglucoside esters as anti-microbial an agents” (Ulice, priority 1996, dated 2002)

Key:
Type in all cases: cell-based
[1] = system: Staphylococcus aureus, Pseudomonas aeruginosa, Escherichia coli; assay: Preservative efficacy test (Pharmacopée Française), bactericidal effect
Experimental: (§1) The inventors thus tested the bactericidal and/or fungicidal activity of α-alkylglucoside and α-alkylglucoside ester type compounds to determine the conditions, in particular the concentrations, under which said compounds have to be used for the desired activities to be obtained. The results of these tests were analysed in accordance with the “Pharmacopée Françcaise” which describes a methodology for monitoring the efficacy of antimicrobial preservation agents in pharmaceutical preparations and establishes minimum efficacy criteria as a function of the administration routes of a medicine. Thus specific criteria are fixed for topical patent medicines which can be considered to be close to cosmetic products in their conception. The recommended and significant criteria for bactericidal and/or fungicidal activity of a product are:
for a bactericidal effect (Staphylococcus aureus, Pseudomonas aeruginosa, Escherichia coli):
reduction of 3 logarithmic units in 14 days with respect to the initial population;
no increase in microbial growth after 14 days and up to the 28th day, when the test is stopped;
(§2) In order to facilitate visualisation of the bactericidal or fungicidal effect of the tested compounds, the results obtained were transcribed into the graphical forms of FIG. 5 which show the reduction in the number of germs in logarithmic units, over time (1 day, 7 days, 14 days, 21 days, 28 days).

Aspergillus niger = assay: Preservative efficacy test (Pharmacopée Française), fungicidal effect on Aspergillus niger; conditions: concentration of 5%
Experimental: as §1
(§3) for a fungicidal effect (yeasts and moulds) (Candida albicans, Aspergillus niger):
(§4) reduction of one logarithmic unit in 14 days with respect to the initial population;
(§5) no increase in microbial growth after 14 days and up to the 28th day, when the test is stopped.
as §2

[2] = system: Candida albicans, Aspergillus niger; assay: Preservative efficacy test (Pharmacopée Française), fungicidal effect (yeasts and moulds); conditions: concentrations of 1% to 3%
Experimental: as §1, §3, §4, §5, §2

CCCCO[C@H]1O[C@H](CO)[C@@H](O)[C@H](O)[C@H]1O [α-BG, α-butylglucoside]
compliance with bactericidal standards of the Pharmacopée Française ([1]; concentrations above 1%): corresponds to the bactericidal standards
logarithmic reduction (bactericidal effect) ([1]; concentrations above 1% (1% to 5%), after 14 days): more than 3 logarithmic units
increase in the number of strains after 14 days ([1]; concentrations above 1%, after 14 days): no subsequent increase in the number of strains
reduction in the number of germs ([1]; concentrations of less than 0.8%): small reduction in the number of germs
fungicidal activity on Aspergillus niger at 5% versus lower concentrations (Aspergillus niger): less active than at lower concentrations
compliance with fungicidal standards [2]: satisfy the fungicidal standards
